# In patent US9375477B2 (GALDERMA RESEARCH & DEVELOPMENT, priority 2012, dated 2016):
# Assay: In vitro cutaneous penetration on human skin (Franz cell)
# Format: in vitro ADME
# Conditions: 16 hours after application; the 3 formulae evaluated (Examples 2 and 9, reference gel)
# Procedure: The cutaneous penetration studies performed on the formulations of the invention containing an active principle of the retinoid class were performed in vitro on whole human abdominal skin after excision, this skin being mounted on a Franz cell.
# After topical application of a given amount of the formulation to the surface of the skin, the penetration of the active principle is measured 16 hours after application.
# The amount of active principle of the retinoid class is measured in the various skin compartments: stratum corneum, epidermis, dermis and also in the receiving liquid.
# The bioanalysis was carried out by positive electrospray ionization tandem mass spectrometry, and using a Xevo machine (Waters).
# The quantification limit for compound A is 0.5 ng/mL. The LC/MS/MS conditions developed made it possible to detect up to 0.1% of the dose applied in each of the compartments (dose not absorbed, stratum, epidermis, dermis and receiving liquid). The appropriateness, accuracy and repeatability of the method were checked in each of the matrices, and made it possible to validate the bioanalysis method.
# In this type of “single point” study, the parameters retained are: • a. the distribution profile in the various compartments (qualitative data) • b. the penetration into the epidermis+dermis compartment (numerical data)
structure (smiles),measurement,value
"CC(C)(C)c1cc(-c2cc(-c3ccc(C(=O)O)cc3)ccc2OCCO)ccc1N1CCCC1 [Compound A, 3″-tert-butyl-4′-(2-hydroxyethoxy)-4″-pyrrolidin-1-yl-[1,1′; 3′,1″]-terphenyl-4-carboxylic acid]",Compound A in the receiving liquid,not detected
